Results from paper PMC8023712, “Carboxylesterase Activities and Protein Expression in Rabbit and Pig Ocular Tissues” (Molecular Pharmaceutics, 2021).
Values joined by “and” are separate entries in the source; they are usually repeats but may differ in a detail not shown here. Identical values can stand only once. Like-named read-outs stand apart in the source and are kept apart here. Values belong to the molecule of their own block, whether it stands above or below them.

Tests used:
[1] = tested on: AADAC (rabbit ocular tissue homogenates); experiment: Phenacetin hydrolysis to p-phenetidine in rabbit ocular tissues; format: in vitro ADME; conditions: 4 mM phenacetin, below detection limit
Description: (§1) Phenacetin, a specific substrate for human AADAC,[18],[19],[24] was incubated with ocular tissue homogenates. The substrate (4 mM, final concentration) was preincubated in the 0.1 M Tris-HCl, pH 7.4, buffer at 37 °C for 5 min, after which the tissue samples (20 μg of protein) were added to start the reaction in the total reaction volume of 200 μL. All the reaction and control samples were incubated for 50 min at 37 °C with shaking. The reaction was terminated by adding 200 μL of ice-cold ACN containing acetaminophen at an 1 μM final concentration as the internal standard, followed by centrifugation at 4 °C for 10 min at 10 000g. A standard curve using the metabolite p-phenetidine (0.1–100 μM)[24] was established. The protein amount and incubation time were optimized from earlier pilot experiments for both procaine and phenacetin hydrolysis reactions. All incubations were performed in triplicate including the controls (control with no sample, control with no substrate), and the data are expressed as mean ± SD.
(§2) The metabolites from the above CES2 and AADAC assays were analyzed using a Waters (Milford, MA) Acquity ultra-performance liquid chromatographic (UPLC) coupled with a Q-Exactive Focus Orbitrap MS (Thermo Scientific). […]

[2] = tested on: AADAC (pig ocular tissue homogenates); experiment: Phenacetin hydrolysis to p-phenetidine in pig ocular tissues; format: in vitro ADME; conditions: 4 mM phenacetin, below detection limit
Description: as §1, §2

[3] = tested on: CES2 (FDA hydrolysis in pig retina); experiment: Inhibition of FDA hydrolysis in pig retina; format: biochemical; conditions: 10 μM FDA
Description: Diluted samples (5 μg of protein) were incubated at 37 °C in black 96-well Thermo Scientific Nunc F96 MicroWell plates. […] The fluorescein stock solution was used to generate a standard curve (0.156–10 μM) using 2-fold serial dilutions in 0.1 M PBS, pH 7.4.
(§3) Inhibitors were tested at a final concentration range of 0.4–400 μM except for PMSF (0.3–2.5 mM).
(§4) The differences among hydrolytic activities were analyzed by ANOVA using the SigmaPlot software (Sigma Plot 13.0, Systat Software Inc., San Jose, CA), followed by Mann–Whitney U test for statistical comparisons between species and between tissues. Between species, statistically significant differences are ranked by the asterisk signs (in the order of *, p < 0.05; **, p < 0.01, and *** p < 0.001). Between tissues of the same species, statistically significant differences in comparison to conjunctiva are represented by the dagger sign (†, p < 0.05). Nonlinear regression analysis to determine the Km, Vmax, and IC50 values were done using GraphPad Prism (GraphPad, 5.04 Software Inc., San Diego, CA). For IC50, logarithms of inhibitor concentrations were plotted against the relative response (0 μM inhibitor = 100%).

rhCES2 = conditions: cited from earlier work
CES2 > CES1 (HLM) = target: CES2 > CES1 (HLM); set-up: method as in PMID 23648675, PMID 32955894; conditions: read-out: Ki (literature); cited from earlier work
[4] = tested on: esterases in pig cornea homogenate (NPA hydrolysis); experiment: Inhibition of NPA hydrolysis in pig cornea; format: biochemical; conditions: 0.1 mM NPA; for IC50: for PMSF no unique IC50, concentration giving 50% inhibition, read-out: IC50 (this study), inhibition of NPA hydrolysis
Description: (§5) NPA hydrolysis was performed with a slight modification to our previous protocol[22] in clear flat-bottom 96-well Thermo Scientific Sterilin Microtiter plates at 37 °C. Diluted ocular samples (8 μg of protein in 80 μL of PBS) were pipetted into the reaction wells, and the background absorbance was measured at 405 nm for 10 min of preincubation. […] Changes in absorbance at 405 nm were recorded with a Victor^2 Microplate Reader (PerkinElmer Wallac 1420, St. Paul, MN) for 45 min with 90 s reading intervals. 4-Nitrophenol was used to generate a standard curve (5–400 μM).
as §3, §4

most esterases = conditions: cited from earlier work
[5] = target: CES1 (DME hydrolysis in pig cornea and conjunctiva) (Sus scrofa, UniProt F1RF16); experiment: Inhibition of DME hydrolysis in pig cornea and conjunctiva; format: biochemical; conditions: 5 μM DME, at 200 μM inhibitor, read-out: Extent of inhibition of DME hydrolysis
Description: (§6) The hydrolysis of DME was monitored with slight modifications using the published bioluminescence-based assay[13],[21] where recombinant firefly luciferase enzyme was used to detect the D-luciferin that formed in the reaction mixture. The DME hydrolysis reaction was done in white-coated 96-well plates (Thermo Scientific Sterilin Microtiter Plates). Tissue lysates (5 μg of protein) were preincubated in 0.1 M PBS, pH 6.5. The reaction was initiated by adding DME to a final concentration of 5 μM in a final volume of 200 μL. The hydrolysis of DME was allowed to proceed for 20 min at 37 °C. The formed D-luciferin was quantitated by an injection of 73 μL of the luciferase detection reagent [3 μg of rLuciferase, 50 nmol of ATP, and 50 nmol of MgCl2 in PBS], and the luminescence was measured immediately with a Victor^2 Microplate Reader (560 nm, 1 s). Serial 2-fold dilutions of D-luciferin in 0.1 M PBS, pH 6.5 were used to generate the standard curve (0.156–10 μM).
as §3
(§7) The differences among hydrolytic activities were analyzed by ANOVA using the SigmaPlot software (Sigma Plot 13.0, Systat Software Inc., San Jose, CA), followed by Mann–Whitney U test for statistical comparisons between species and between tissues. […]

[6] = tested on: CES1 (DME hydrolysis in rabbit cornea and conjunctiva); experiment: Inhibition of DME hydrolysis in rabbit cornea and conjunctiva; format: biochemical; conditions: 5 μM DME, at 200 μM inhibitor
Description: as §6, §3, §7

[7] = tested on: CES2 (pig ocular tissue homogenates); conditions: for FDA hydrolysis rate: 100 μM FDA
[8] = tested on: CES2 (rabbit ocular tissue homogenates); conditions: for FDA hydrolysis rate: 100 μM FDA
[9] = tested on: multiple esterases (pig ocular tissue homogenates); experiment: NPA hydrolysis in pig ocular tissue homogenates; format: in vitro ADME; conditions: for NPA hydrolysis rate: 400 μM NPA
Description: as §5, with “St.” for “St. Paul, MN) for 45 min with 90 s reading intervals. 4-Nitrophenol was used to generate a standard curve (5–400 μM).”

[10] = tested on: multiple esterases (rabbit ocular tissue homogenates); experiment: NPA hydrolysis in rabbit ocular tissue homogenates; format: in vitro ADME; conditions: for NPA hydrolysis rate: 400 μM NPA
Description: as §5, with “St.” for “St. Paul, MN) for 45 min with 90 s reading intervals. 4-Nitrophenol was used to generate a standard curve (5–400 μM).”

[11] = tested on: multiple esterases (rabbit cornea); conditions: NPA, read-out: Km literature data; cited from earlier work
pig liver CES1 = conditions: NPA, read-out: Km literature data; cited from earlier work
multiple esterases (HLM) = conditions: NPA, read-out: Km literature data; cited from earlier work
[12] = tested on: CES2 (rabbit ocular tissue homogenates); experiment: Procaine hydrolysis to PABA in rabbit ocular tissues; format: in vitro ADME; conditions: 100 μM procaine
Description: (§8) Procaine, a known human CES2 substrate,[2],[17],[50] was incubated with rabbit and pig ocular tissues. After preincubation of the substrate (100 μM procaine in 0.1 M Tris-HCl, pH 7.4) at 37 °C, the reaction was initiated with tissue samples (20 μg of protein) in a total reaction volume of 200 μL. All the samples in parallel with the controls (no substrate or no enzyme) were incubated for 50 min at 37 °C on a shaker incubator (Heidolph Titramax 1000 platform shaker, Berlin Germany). The reaction was terminated by adding 200 μL of ice-cold ACN containing the internal standard procainamide (1 μM final concentration), followed by centrifugation at 4 °C for 10 min at 10 000g. Supernatants were collected for HPLC analysis. The standard curve was established using the hydrolysis product PABA with the concentration range 0.1–1000 nM.[51]
(§9) The metabolites from the above CES2 and AADAC assays were analyzed using a Waters (Milford, MA) Acquity ultra-performance liquid chromatographic (UPLC) coupled with a Q-Exactive Focus Orbitrap MS (Thermo Scientific). A Waters HSS T3 column (2.1 mm × 100 mm, 1.8 μm particle size) was used with elution gradients A (0.1% formic acid) and B (methanol) [0–0.5 min, 1% B; 0.5–4 min, 1%–20% B; 4–4.5 min, 20%–98% B; 4.5–5 min, 98% B; and 5–6 min, 98%–1% B]. The injection volume was 2 μL with a flow rate of 0.5 mL/min and a column temperature of 40 °C. […]

[13] = tested on: CES2 (pig ocular tissue homogenates); experiment: Procaine hydrolysis to PABA in pig ocular tissues; format: in vitro ADME; conditions: 100 μM procaine
Description: as §8, §9

[14] = tested on: esterases in rabbit cornea, iris–ciliary body and aqueous humor; set-up: method as in PMID 16223870; conditions: 1000 μM; cited from earlier work

Chain of CES1 (DME hydrolysis in pig cornea and conjunctiva) (F1RF16 19-530): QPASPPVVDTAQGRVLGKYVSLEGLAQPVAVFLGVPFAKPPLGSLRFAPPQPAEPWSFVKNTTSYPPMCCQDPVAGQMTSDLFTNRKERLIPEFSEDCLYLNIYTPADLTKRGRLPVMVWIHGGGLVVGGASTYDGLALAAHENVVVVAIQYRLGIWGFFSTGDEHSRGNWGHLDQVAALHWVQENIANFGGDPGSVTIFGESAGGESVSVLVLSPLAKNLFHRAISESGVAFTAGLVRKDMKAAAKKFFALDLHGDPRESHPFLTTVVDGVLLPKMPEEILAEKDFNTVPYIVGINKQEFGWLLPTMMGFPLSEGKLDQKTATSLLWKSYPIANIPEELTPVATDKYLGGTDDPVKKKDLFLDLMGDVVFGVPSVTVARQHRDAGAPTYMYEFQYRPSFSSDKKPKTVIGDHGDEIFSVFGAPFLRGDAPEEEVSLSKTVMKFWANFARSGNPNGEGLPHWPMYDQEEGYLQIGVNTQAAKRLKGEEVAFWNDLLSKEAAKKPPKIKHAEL

Phenacetin hydrolysis rate (p-phenetidine formation) [1]: undetectable
Phenacetin hydrolysis rate (p-phenetidine formation) ([1]; listed as Phenacetin): < 0.1 pmol/min/mg
Phenacetin hydrolysis rate (p-phenetidine formation) [2]: undetectable
Phenacetin hydrolysis rate (p-phenetidine formation) ([2]; listed as Phenacetin): < 0.1 pmol/min/mg
Compound: CCOc1ccc(NC(C)=O)cc1 [phenacetin]

Compound: COc1ccc(CCN(C)CCCC(C#N)(c2ccc(OC)c(OC)c2)C(C)C)cc1OC (stereo not drawn) [verapamil]
Extent of inhibition of FDA hydrolysis [3]: no inhibition
IC50 (rhCES2; rhCES2, read-out: IC50 (literature)): 7.94 µM
Ki (rhCES2; rhCES2, read-out: Ki (literature)): 3.84 ± 0.99 µM
Ki (CES2 > CES1 (HLM)): 11.5 ± 1.2 µM

Compound: O=S(=O)(F)Cc1ccccc1 [PMSF, phenylmethylsulfonyl fluoride]
IC50 [4]: 200 µM and ~200 µM
IC50 (most esterases; most esterases, read-out: IC50 (literature)): 541 µM
Ki (most esterases; most esterases, read-out: Ki (literature)): 560 µM
IC50 (most esterases; other tissues, read-out: reported IC50 value in other tissues): ~500 µM

Compound: C[C@@H]1CC[C@@]2(OC1)O[C@H]1[C@@H](O)[C@H]3[C@@H]4CC[C@H]5C[C@@H](O[C@@H]6O[C@H](CO)[C@H](O[C@@H]7O[C@H](CO)[C@@H](O)[C@H](O[C@@H]8OC[C@@H](O)[C@H](O)[C@H]8O)[C@H]7O[C@@H]7O[C@H](CO)[C@H](O)[C@H](O[C@@H]8O[C@H](CO)[C@@H](O)[C@H](O)[C@H]8O)[C@H]7O)[C@H](O)[C@H]6O)[C@H](O)C[C@]5(C)[C@H]4CC[C@]3(C)[C@H]1[C@@H]2C [digitonin]
inhibition at 200 µM [5]: 15%
IC50 [4]: 38 µM
Extent of inhibition of NPA hydrolysis (maximal) ([4]; highest inhibitor concentration 400 μM (PMSF 2.5 mM)): ~40%
Extent of inhibition of DME hydrolysis [6]: 30%

FDA hydrolysis rate ([7]; most pig ocular tissues (except retina)): < 0.1 nmol/min/mg
FDA hydrolysis rate ([7]; pig retina): 0.6 ± 0.1 nmol/min/mg
Km ([7]; read-out: Km (this study), FDA hydrolysis in pig retina): 16 ± 1.6 µM
FDA hydrolysis rate ([8]; rabbit RPE, aqueous humor and vitreous): 0.1 to 0.2 nmol/min/mg
FDA hydrolysis rate ([8]; rabbit choroid, cornea and conjunctiva): > 1.0 nmol/min/mg
FDA hydrolysis rate ([8]; rabbit retina): 0.5 to 1 nmol/min/mg
Km ([8]; read-out: Km (this study), FDA hydrolysis in rabbit cornea): 5.5 ± 0.4 µM
Compound: CC(=O)Oc1ccc2c(c1)Oc1cc(OC(C)=O)ccc1C21OC(=O)c2ccccc21 [FDA, fluorescein diacetate]

Km ([9]; NPA hydrolysis in pig cornea, read-out: Km (this study)): 125 ± 13 µM
NPA hydrolysis rate ([9]; pig RPE): 8.4 ± 1.0 nmol/min/mg
NPA hydrolysis rate ([9]; pig, all ocular tissues except RPE): around 20 nmol/min/mg
Km ([10]; NPA hydrolysis in rabbit cornea, read-out: Km (this study)): 263 ± 15 µM
NPA hydrolysis rate ([10]; rabbit RPE): 17.5 ± 2.7 nmol/min/mg
NPA hydrolysis rate ([10]; rabbit choroid): 81.6 ± 6.8 nmol/min/mg
NPA hydrolysis rate ([10]; rabbit, most ocular tissue homogenates, 37 °C): 30–45 nmol/min/mg protein
Compound: CC(=O)Oc1ccc([N+](=O)[O-])cc1 [NPA, 4-Nitrophenyl acetate]
Km [11]: 68 ± 15 µM
Km (pig liver CES1): 520 ± 60 µM
Km (multiple esterases (HLM)): 198 ± 17 µM

Compound: COc1ccc([C@@H]2Sc3ccccc3N(CCN(C)C)C(=O)[C@@H]2OC(C)=O)cc1 [diltiazem]
Ki (CES2 > CES1 (HLM)): 2.89 ± 0.39 µM

Compound: CC(C)(C)NC[C@H](O)COc1nsnc1N1CCOCC1 [timolol]
Extent of inhibition of FDA hydrolysis [3]: no inhibition
inhibition (literature, printed in IC50 column) (rhCES2; main human enzyme CES2, at 200 μM): 20% inhibition at 200 μM

Procaine hydrolysis rate (PABA formation) ([12]; rabbit aqueous humor and conjunctiva): 0.04 to 0.1 nmol/min/mg
Procaine hydrolysis rate (PABA formation) ([12]; rabbit cornea, vitreous, RPE and choroid): 0.2 to 0.3 nmol/min/mg
Procaine hydrolysis rate (PABA formation) ([13]; pig aqueous humor (lowest)): 0.02 nmol/min/mg
Procaine hydrolysis rate (PABA formation) ([13]; pig retina (highest)): 0.09 nmol/min/mg
Compound: CCN(CC)CCOC(=O)c1ccc(N)cc1 [procaine]

Compound: O=C(O)c1cc[c]([Hg][Cl])cc1 [p-chloromercuribenzoate]
Inhibition of naphthyl acetate hydrolysis [14]: 10%–30%

Compound: O=C(O)CN(CCN(CC(=O)O)CC(=O)O)CC(=O)O [EDTA]
Inhibition of naphthyl acetate hydrolysis [14]: 10%–30%
